Test results from patent US20250145628A1, “PYRAZOLOPYRIMIDINES, COMPOSITIONS COMPRISING THEM AND USES THEREOF” (Novo Nordisk A/S, priority 2022, published 2025).

What was measured:
human CB1 receptor [1] = target: T1, human CB1 receptor (Homo sapiens, UniProt P21554); test: bioSensAll β-arrestin plasma membrane translocation BRET biosensor (+GRK2) assay (antagonism of CP-55,940); type: cell-based; conditions: HEK293 cells transfected with hCB1 and β-arrestin PM translocation biosensor (+GRK2), EC75 of CP-55,940 (100 nM), overnight incubation, read-out: CB1 wt βarr2 IC50
T1 construct: expressed in transfected cells; host or cells: HEK293
How it was run: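 HEK293 cells co-transfected with hCB1 and β-arrestin plasma-membrane translocation BRET biosensor plus GRK2, tested ~48 h later in HBSS. Compounds (12 doses, 0–600 nM) added 3–5 min before CP-55,940 at EC75 of 100 nM. uBRET ratio (515/400 nm) fitted by four-parameter logistic regression.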

human CB1 receptor [2] = target: T1, human CB1 receptor; test: bioSensAll GAPL-Gi2 BRET biosensor assay (antagonism of CP-55,940); type: cell-based; conditions: HEK293 cells transfected with hCB1 and GAPL-Gi2 biosensor, EC75 of CP-55,940 (0.1 nM), overnight incubation, read-out: CB1 wt Gi2 IC50
How it was run: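 HEK293 cells transiently co-transfected with hCB1 and GAPL-Gi2 BRET biosensor; ~48 h later, in HBSS, 12 compound doses ([…]) added 3–5 min before CP-55,940 at EC75 (0.1 nM). BRET ratio 515/400 nm with coelenterazine, standardized to uBRET; four-parameter logistic fit.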

T1 sequence (P21554 whole entry): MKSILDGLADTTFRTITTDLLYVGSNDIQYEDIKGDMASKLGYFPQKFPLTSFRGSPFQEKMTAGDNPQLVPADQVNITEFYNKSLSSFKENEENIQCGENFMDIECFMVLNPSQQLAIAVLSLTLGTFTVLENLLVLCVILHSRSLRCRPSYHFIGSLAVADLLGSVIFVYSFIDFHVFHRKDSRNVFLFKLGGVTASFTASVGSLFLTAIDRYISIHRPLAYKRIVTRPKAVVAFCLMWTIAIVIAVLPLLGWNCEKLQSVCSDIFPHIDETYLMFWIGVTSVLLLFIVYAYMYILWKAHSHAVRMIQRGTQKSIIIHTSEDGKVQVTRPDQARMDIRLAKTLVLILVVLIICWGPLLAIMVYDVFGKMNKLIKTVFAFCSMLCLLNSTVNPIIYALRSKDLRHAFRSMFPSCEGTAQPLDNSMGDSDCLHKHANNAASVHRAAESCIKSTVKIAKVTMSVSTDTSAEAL

Row | SMILES | IC50 (human CB1 receptor [1]) | IC50 (human CB1 receptor [2])
1 | CC(C)(O)COc1cc(N2CCN(S(=O)(=O)C(F)(F)F)CC2)n2nc(-c3ccc(C#N)nc3)c(-c3ccc(Cl)cc3)c2n1 [Compound 53, 5-[3-(4-chlorophenyl)-5-(2-hydroxy-2-methyl-propoxy)-7-[4-(trifluoromethylsulfonyl)piperazin-1-yl]pyrazolo[1,5-a]pyrimidin-2-yl]pyridine-2-carbonitrile] | 1.24 nM | 1.07 nM
2 | CN(CC(C)(C)O)c1cc(-c2ccc(C(F)(F)F)nc2)n2nc(-c3ccc(C(N)=O)nc3)c(-c3ccc(Cl)cc3)c2n1 [Compound 64, 5-[3-(4-chlorophenyl)-5-[(2-hydroxy-2-methyl-propyl)-methyl-amino]-7-[6-(trifluoromethyl)-3-pyridyl]pyrazolo[1,5-a]pyrimidin-2-yl]pyridine-2-carboxamide] | 2.95 nM | 1.25 nM
3 | Cc1ccc(-c2cc(N3CCC[C@H]3CO)nc3c(-c4ccc(Cl)cc4)c(-c4ccccc4Cl)nn23)cn1 [Compound 56, [(2S)-1-[2-(2-chlorophenyl)-3-(4-chlorophenyl)-7-(6-methyl-3-pyridyl)pyrazolo[1,5-a]pyrimidin-5-yl]pyrrolidin-2-yl]methanol] | 5.8 nM | 2.69 nM
4 | CN(CP(C)(C)=O)c1cc(N2CCC[C@@H](C(N)=O)C2)n2nc(-c3ccccc3Cl)c(-c3ccc(Cl)cc3)c2n1 [Compound 34, (3R)-1-[2-(2-chlorophenyl)-3-(4-chlorophenyl)-5-[dimethylphosphorylmethyl(methyl)amino]pyrazolo[1,5-a]pyrimidin-7-yl]piperidine-3-carboxamide] | 155 nM | > 10000 nM
5 | COC1(C)CN(c2cc(OCC(C)(C)O)nc3c(-c4ccc(Cl)cc4)c(-c4ccc(C#N)nc4)nn23)C1 [Compound 52, 5-[3-(4-chlorophenyl)-5-(2-hydroxy-2-methyl-propoxy)-7-(3-methoxy-3-methyl-azetidin-1-yl)pyrazolo[1,5-a]pyrimidin-2-yl]pyridine-2-carbonitrile] | 2.56 nM | 1.47 nM
6 | CC(C)(O)COc1cc(N2CCN(S(=O)(=O)C(F)(F)F)CC2)n2nc(-c3ccccc3Cl)c(-c3ccc(Cl)cc3)c2n1 [Compound 15, 1-[2-(2-chlorophenyl)-3-(4-chlorophenyl)-7-[4-(trifluoromethylsulfonyl)piperazin-1-yl]pyrazolo[1,5-a]pyrimidin-5-yl]oxy-2-methyl-propan-2-ol] | 9.55 nM | 3.97 nM
7 | CN(C)C(=O)CN(C)c1cc(N2CCC(C)(C(N)=O)CC2)n2nc(-c3ccccc3Cl)c(-c3ccc(Cl)cc3)c2n1 [Compound 25, 1-[2-(2-chlorophenyl)-3-(4-chlorophenyl)-5-[[2-(dimethylamino)-2-oxo-ethyl]-methyl-amino]-pyrazolo[1,5-a]pyrimidin-7-yl]-4-methyl-piperidine-4-carboxamide] | 17.5 nM | 6.47 nM
8 | CN(CCC(N)=O)c1cc(N2CCC[C@@H](C(N)=O)C2)n2nc(-c3ccccc3Cl)c(-c3ccc(Cl)cc3)c2n1 [Compound 23, (3R)-1-[5-[(3-amino-3-oxo-propyl)-methyl-amino]-2-(2-chlorophenyl)-3-(4-chlorophenyl)pyrazolo[1,5-a]pyrimidin-7-yl]piperidine-3-carboxamide] | 101 nM | 25.5 nM
9 | CC(C)(O)COc1cc(N2CCN(S(C)(=O)=O)CC2)n2nc(-c3ccccc3Cl)c(-c3ccc(Cl)cc3)c2n1 [Compound 16, 1-[2-(2-chlorophenyl)-3-(4-chlorophenyl)-7-(4-methylsulfonylpiperazin-1-yl)pyrazolo[1,5-a]pyrimidin-5-yl]oxy-2-methyl-propan-2-ol] | 13.3 nM | 5.91 nM
10 | CN(CCO)c1cc(N2CCC(C)(C(N)=O)CC2)n2nc(-c3ccccc3Cl)c(-c3ccc(Cl)cc3)c2n1 [Compound 10, 1-[2-(2-chlorophenyl)-3-(4-chlorophenyl)-5-[2-hydroxyethyl(methyl)amino]pyrazolo[1,5-a]pyrimidin-7-yl]-4-methyl-piperidine-4-carboxamide] | 1.74 nM | 0.255 nM
11 | CCOC1(C(N)=O)CCN(c2cc(N(C)CC(C)(C)O)nc3c(-c4ccc(Cl)cc4)c(-c4ccccc4Cl)nn23)CC1 [Compound 44, 1-[2-(2-chlorophenyl)-3-(4-chlorophenyl)-5-[(2-hydroxy-2-methyl-propyl)-methyl-amino]pyrazolo[1,5-a]pyrimidin-7-yl]-4-ethoxy-piperidine-4-carboxamide] | 14.3 nM | 3.9 nM
12 | CC(C)(O)COc1cc(-c2ccc(C(F)(F)F)nc2)n2nc(-c3ccccc3Cl)c(-c3ccc(Cl)cc3)c2n1 [Compound 45, 1-[2-(2-chlorophenyl)-3-(4-chlorophenyl)-7-[6-(trifluoromethyl)-3-pyridyl]pyrazolo[1,5-a]pyrimidin-5-yl]oxy-2-methyl-propan-2-ol] | 8.61 nM | 3.97 nM
13 | CN(CCC(N)=O)c1cc(N2CC[C@H](CC(N)=O)C2)n2nc(-c3ccccc3Cl)c(-c3ccc(Cl)cc3)c2n1 [Compound 28, 3-[[7-[(3R)-3-(2-amino-2-oxo-ethyl)pyrrolidin-1-yl]-2-(2-chlorophenyl)-3-(4-chlorophenyl)pyrazolo[1,5-a]pyrimidin-5-yl]-methyl-amino]propanamide] | 93.9 nM | 18.9 nM
14 | CC(=O)NC1(C)CCN(c2cc(N(C)CCC(N)=O)nc3c(-c4ccc(Cl)cc4)c(-c4ccccc4Cl)nn23)CC1 [Compound 27, 3-[[7-(4-acetamido-4-methyl-1-piperidyl)-2-(2-chlorophenyl)-3-(4-chlorophenyl)pyrazolo[1,5-a]pyrimidin-5-yl]-methyl-amino]propanamide] | 4.69 nM | 1.28 nM
15 | CN(C)C(=O)CN(C)c1cc(N2CCC[C@@H](C(N)=O)C2)n2nc(-c3ccccc3Cl)c(-c3ccc(Cl)cc3)c2n1 [Compound 29, (3R)-1-[2-(2-chlorophenyl)-3-(4-chlorophenyl)-5-[[2-(dimethylamino)-2-oxo-ethyl]-methyl-amino]pyrazolo[1,5-a]pyrimidin-7-yl]piperidine-3-carboxamide] | 114 nM | 34.8 nM
16 | CN(CP(C)(C)=O)c1cc(N2CC[C@H](CC(N)=O)C2)n2nc(-c3ccccc3Cl)c(-c3ccc(Cl)cc3)c2n1 [Compound 30, 2-[(3R)-1-[2-(2-chlorophenyl)-3-(4-chlorophenyl)-5-[dimethylphosphorylmethyl(methyl)amino]pyrazolo[1,5-a]pyrimidin-7-yl]pyrrolidin-3-yl]acetamide] | 198 nM | 679 nM
17 | CCNC(=O)CN(C)c1cc(N2CC(OCC(N)=O)C2)n2nc(-c3ccccc3Cl)c(-c3ccc(Cl)cc3)c2n1 [Compound 69, 2-[[7-[3-(2-amino-2-oxo-ethoxy)azetidin-1-yl]-2-(2-chlorophenyl)-3-(4-chlorophenyl)pyrazolo[1,5-a]pyrimidin-5-yl]-methyl-amino]-N-ethyl-acetamide] | > 30000 nM | 3910 nM
18 | CC1(C(N)=O)CCN(c2cc(N3CC[C@@H](O)C3)nc3c(-c4ccc(Cl)cc4)c(-c4ccccc4Cl)nn23)CC1 [Compound 21, 1-[2-(2-chlorophenyl)-3-(4-chlorophenyl)-5-[(3R)-3-hydroxypyrrolidin-1-yl]pyrazolo[1,5-a]pyrimidin-7-yl]-4-methyl-piperidine-4-carboxamide] | 4.6 nM | 1.28 nM
19 | CC1(C(N)=O)CCN(c2cc(N3CCC[C@H]3CO)nc3c(-c4ccc(Cl)cc4)c(-c4ccccc4Cl)nn23)CC1 [Compound 9, 1-[2-(2-chlorophenyl)-3-(4-chlorophenyl)-5-[(2S)-2-(hydroxymethyl)pyrrolidin-1-yl]pyrazolo[1,5-a]pyrimidin-7-yl]-4-methyl-piperidine-4-carboxamide] | 1.84 nM | 0.351 nM
20 | CCNC1(C(N)=O)CCN(c2cc(N3CCC[C@H]3CO)nc3c(-c4ccc(Cl)cc4)c(-c4ccccc4Cl)nn23)CC1 [Compound 1, 1-[2-(2-chlorophenyl)-3-(4-chlorophenyl)-5-[(2S)-2-(hydroxymethyl)pyrrolidin-1-yl]pyrazolo[1,5-a]pyrimidin-7-yl]-4-(ethylamino)piperidine-4-carboxamide] | 4.31 nM | 1.2 nM
21 | CNC(=O)CCN(C)c1cc(N2CCC(C)(C(N)=O)CC2)n2nc(-c3ccccc3Cl)c(-c3ccc(Cl)cc3)c2n1 [Compound 38, 1-[2-(2-chlorophenyl)-3-(4-chlorophenyl)-5-[methyl-[3-(methylamino)-3-oxo-propyl]amino]pyrazolo[1,5-a]pyrimidin-7-yl]-4-methyl-piperidine-4-carboxamide] | 10.9 nM | 2.48 nM
22 | CCNC(=O)CNc1cc(N2CCC(C)(C(N)=O)CC2)n2nc(-c3ccccc3Cl)c(-c3ccc(Cl)cc3)c2n1 [Compound 47, 1-[2-(2-chlorophenyl)-3-(4-chlorophenyl)-5-[[2-(ethylamino)-2-oxo-ethyl]amino]pyrazolo[1,5-a]pyrimidin-7-yl]-4-methyl-piperidine-4-carboxamide] | 131 nM | 33.7 nM
23 | CC(C)Oc1cc(N(C)CCO)nc2c(-c3ccc(Cl)cc3)c(-c3ccccc3Cl)nn12 [Compound 12, 2-[[2-(2-chlorophenyl)-3-(4-chlorophenyl)-7-isopropoxy-pyrazolo[1,5-a]pyrimidin-5-yl]-methyl-amino]ethanol] | 16.8 nM | 1.69 nM
